Assays:
HDAC9 = target: T1, HDAC9 (Homo sapiens, UniProt Q9UKV0); assay: Fluorescence-based HDAC inhibition assay, HDAC9; assay type: biochemical; conditions: for IC50: 10 μM Boc-Lys(TFA)-AMC substrate, mean of two experiments ± SEM
T1 construct: made in house; host or cells: HEK293/T17 cells, transient transfection
Protocol: (§1) Briefly, transiently transfected cells were harvested three days post-transfection and the cell pellets resuspended in a lysis buffer (50 mM Tris, 150 mM NaCl, 10 mM KCl, 2 mM MgCl2, 10% glycerol, 0.2% NP-40, 2 Units/mL benzonase, pH 8) supplemented with a cocktail of protease inhibitors (Roche, Basel, Switzerland). Cells were lysed by sonication (30 W; 3×20 s) on ice, and the cell lysate cleared by centrifugation at 40 000×g for 30 min at 4° C. […] Purified proteins were concentrated to 1 mg/mL, aliquoted, flash-frozen in liquid nitrogen, and stored at −80° C. until further use.
(§2) Briefly, individual HDACs were preincubated with dilution series of tested inhibitors (0-100 μM) in a 384-well plate in the total volume of 40 μL for 10 min at 37° C. in a reaction buffer comprising 50 mM HEPES, 140 mM NaCl, 10 mM KCl, 1 mM TCEP, 0.1% BSA, pH 7.4. Deacetylation reaction was started by the addition of 10 μL of a 10 μM substrate into the HDAC/inhibitor mixture. Following the 30 min incubation at 37° C., the reaction was terminated by the addition of 25 μL of the trypsin solution (4 mg/mL). Fluorescence development by trypsin was carried out at 37° C. for 15 and 60 min for Ac-GAK(Ac)-AMC and Boc-Lys(TFA)-AMC substrate, respectively. […] Non-linear regression analysis was employed to calculate IC50 values using the GraphPad Prism software. […] Reactions without the enzyme or the inhibitor were used to define 0% and 100% of the HDAC activity, respectively.

HDAC1 = target: T2, HDAC1 (Homo sapiens, UniProt Q13547); assay: Fluorescence-based HDAC inhibition assay, HDAC1; assay type: biochemical
T2 construct: made in house; host or cells: HEK293/T17 cells, transient transfection
Protocol: as §1, §2

HDAC8 = target: T3, HDAC8 (Homo sapiens, UniProt Q9BY41); assay: Fluorescence-based HDAC inhibition assay, HDAC8; assay type: biochemical; conditions: for IC50: 10 μM Boc-Lys(TFA)-AMC substrate, mean of two experiments ± SEM
T3 construct: made in house; host or cells: HEK293/T17 cells, transient transfection
T3 sequence (Q9BY41 1-377): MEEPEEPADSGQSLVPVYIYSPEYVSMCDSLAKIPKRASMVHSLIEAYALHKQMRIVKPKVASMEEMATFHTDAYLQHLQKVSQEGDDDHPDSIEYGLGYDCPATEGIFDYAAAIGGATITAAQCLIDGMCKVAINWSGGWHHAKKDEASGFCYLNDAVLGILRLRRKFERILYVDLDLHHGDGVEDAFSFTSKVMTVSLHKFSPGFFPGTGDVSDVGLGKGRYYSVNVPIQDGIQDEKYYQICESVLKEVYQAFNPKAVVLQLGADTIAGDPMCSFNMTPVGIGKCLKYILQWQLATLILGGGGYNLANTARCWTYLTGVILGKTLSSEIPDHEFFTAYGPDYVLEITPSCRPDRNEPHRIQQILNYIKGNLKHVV
Protocol: as §1, §2

HDAC4 = HDAC4 (Homo sapiens, UniProt P56524); assay: Fluorescence-based HDAC inhibition assay, HDAC4; assay type: biochemical; conditions: for IC50: 10 μM Boc-Lys(TFA)-AMC substrate, mean of two experiments ± SEM
Protocol: as §1, with “Large scale expression of human HDACs was carried out in HEK293/T17 cells essentially as described previously (see, e.g., Falkenberg et al., Nat. Rev. Drug Discov. 13, 673-691 (2014); or Matthias et al., Cell Cycle 7: 7-10 (2008)). Briefly,” for “Briefly,”
Briefly, individual HDACs were preincubated with dilution series of tested inhibitors (0-100 μM) in a 384-well plate in the total volume of 40 μL for 10 min at 37° C. in a reaction buffer comprising 50 mM HEPES, 140 mM NaCl, 10 mM KCl, 1 mM TCEP, 0.1% BSA, pH 7.4. Deacetylation reaction was started by the addition of 10 μL of a 10 μM substrate into the HDAC/inhibitor mixture. Following the 30 min incubation at 37° C., the reaction was terminated by the addition of 25 μL of the trypsin solution (4 mg/mL). Fluorescence development by trypsin was carried out at 37° C. for 15 and 60 min for Ac-GAK(Ac)-AMC and Boc-Lys(TFA)-AMC substrate, respectively. Released aminomethylcoumarin was quantified using a CLARIOstar fluorimeter with the excitation and emission wavelengths set to 365 nm and 440 nm, respectively. Non-linear regression analysis was employed to calculate IC50 values using the GraphPad Prism software. […] Reactions without the enzyme or the inhibitor were used to define 0% and 100% of the HDAC activity, respectively.

[1] = Stability in simulated gastric fluid (SGF)
[2] = mean with standard error
[3] = 10 μM Ac-GAK(Ac)-AMC substrate, mean of two experiments ± SEM

T2 sequence (Q13547 whole entry): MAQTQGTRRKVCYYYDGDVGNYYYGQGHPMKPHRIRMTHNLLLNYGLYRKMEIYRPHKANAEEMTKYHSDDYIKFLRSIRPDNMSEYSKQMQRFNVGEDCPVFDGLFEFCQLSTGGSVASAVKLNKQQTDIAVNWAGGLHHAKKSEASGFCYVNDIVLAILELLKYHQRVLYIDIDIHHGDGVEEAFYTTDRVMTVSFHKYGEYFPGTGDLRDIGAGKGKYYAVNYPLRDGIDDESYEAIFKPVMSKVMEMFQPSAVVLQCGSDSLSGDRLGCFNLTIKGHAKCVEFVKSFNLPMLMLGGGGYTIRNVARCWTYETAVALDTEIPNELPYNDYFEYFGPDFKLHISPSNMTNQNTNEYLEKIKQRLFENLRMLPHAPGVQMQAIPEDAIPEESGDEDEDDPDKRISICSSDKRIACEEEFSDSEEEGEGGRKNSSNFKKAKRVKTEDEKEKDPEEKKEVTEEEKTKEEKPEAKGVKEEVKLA
T1 sequence (Q9UKV0 whole entry): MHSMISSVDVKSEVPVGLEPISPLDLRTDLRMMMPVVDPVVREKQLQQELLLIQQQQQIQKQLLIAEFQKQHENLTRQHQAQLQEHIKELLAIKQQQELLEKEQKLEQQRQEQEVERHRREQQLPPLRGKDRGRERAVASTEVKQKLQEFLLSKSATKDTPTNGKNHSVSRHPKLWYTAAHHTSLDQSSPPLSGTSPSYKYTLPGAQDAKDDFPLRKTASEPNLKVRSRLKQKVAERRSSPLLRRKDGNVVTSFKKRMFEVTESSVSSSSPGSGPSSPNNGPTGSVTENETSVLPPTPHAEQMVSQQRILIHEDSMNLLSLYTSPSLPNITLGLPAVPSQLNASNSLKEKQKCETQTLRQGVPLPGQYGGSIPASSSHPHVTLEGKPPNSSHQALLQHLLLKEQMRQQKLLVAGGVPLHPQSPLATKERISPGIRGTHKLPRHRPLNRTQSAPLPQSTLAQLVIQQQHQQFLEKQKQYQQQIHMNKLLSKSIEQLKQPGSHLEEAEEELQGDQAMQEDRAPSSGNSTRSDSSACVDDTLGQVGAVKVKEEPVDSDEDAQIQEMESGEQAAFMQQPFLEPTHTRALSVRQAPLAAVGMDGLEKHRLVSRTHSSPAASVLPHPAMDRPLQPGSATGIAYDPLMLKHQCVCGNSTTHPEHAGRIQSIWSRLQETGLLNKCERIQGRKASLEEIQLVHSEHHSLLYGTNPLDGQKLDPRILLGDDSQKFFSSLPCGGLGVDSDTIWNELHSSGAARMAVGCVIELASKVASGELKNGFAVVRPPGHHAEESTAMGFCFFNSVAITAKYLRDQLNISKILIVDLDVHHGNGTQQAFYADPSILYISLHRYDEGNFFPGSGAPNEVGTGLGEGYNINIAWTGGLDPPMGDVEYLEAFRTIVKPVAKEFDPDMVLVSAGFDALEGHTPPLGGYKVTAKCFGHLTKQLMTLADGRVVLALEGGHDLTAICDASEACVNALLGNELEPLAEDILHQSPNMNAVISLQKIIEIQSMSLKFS
Sequence of HDAC4 (P56524 whole entry): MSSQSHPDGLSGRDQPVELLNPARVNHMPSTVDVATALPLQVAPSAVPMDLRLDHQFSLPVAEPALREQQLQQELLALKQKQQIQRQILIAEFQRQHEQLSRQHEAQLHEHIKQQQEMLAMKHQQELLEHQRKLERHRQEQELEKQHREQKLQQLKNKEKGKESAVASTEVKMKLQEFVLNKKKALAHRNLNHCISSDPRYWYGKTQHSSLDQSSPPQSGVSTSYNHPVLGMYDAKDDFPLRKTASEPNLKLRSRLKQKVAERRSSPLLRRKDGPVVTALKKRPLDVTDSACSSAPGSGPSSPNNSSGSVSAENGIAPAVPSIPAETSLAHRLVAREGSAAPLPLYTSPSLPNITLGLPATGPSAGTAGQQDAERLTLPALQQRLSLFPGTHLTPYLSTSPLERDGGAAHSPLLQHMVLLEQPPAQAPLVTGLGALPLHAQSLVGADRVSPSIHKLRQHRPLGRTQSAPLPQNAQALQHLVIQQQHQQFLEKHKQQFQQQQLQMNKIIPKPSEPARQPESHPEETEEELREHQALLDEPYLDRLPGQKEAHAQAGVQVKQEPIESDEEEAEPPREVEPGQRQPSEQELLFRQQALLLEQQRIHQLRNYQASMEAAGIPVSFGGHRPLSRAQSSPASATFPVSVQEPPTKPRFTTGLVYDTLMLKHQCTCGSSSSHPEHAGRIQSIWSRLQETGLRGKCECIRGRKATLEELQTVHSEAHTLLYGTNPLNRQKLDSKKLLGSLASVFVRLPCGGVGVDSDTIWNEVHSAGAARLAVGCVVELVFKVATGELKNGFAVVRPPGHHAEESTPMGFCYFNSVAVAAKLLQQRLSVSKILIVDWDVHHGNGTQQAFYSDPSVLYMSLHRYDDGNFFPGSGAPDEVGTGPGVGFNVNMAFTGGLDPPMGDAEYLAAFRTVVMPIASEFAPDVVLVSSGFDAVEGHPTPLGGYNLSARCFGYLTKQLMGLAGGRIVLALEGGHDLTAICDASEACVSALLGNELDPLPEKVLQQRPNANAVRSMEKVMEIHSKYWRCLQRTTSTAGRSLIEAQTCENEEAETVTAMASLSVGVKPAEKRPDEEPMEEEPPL

NCc1ccc(NC(=O)N(CCCCO)Cc2ccc(C(=O)NO)cc2)cc1 [Compound 6a, 4-((3-(4-(Aminomethyl)phenyl)-1-(4-hydroxybutyl)ureido)methyl)-N-hydroxybenz-amide]
Human plasma stability (t1/2, h) (Human plasma stability): >5 h | SI (HDAC6 selectivity index over HDAC9) (HDAC9): 15,700 | IC50 (HDAC9): 6270 nM | SI (HDAC6 selectivity index over HDAC1) (HDAC1): 293 | IC50 (HDAC1; [3]): 117 ± 10 nM | IC50 (HDAC1; Table 2): 117 ± 10 nM | HDAC1/6 (HDAC1; ratio HDAC1 IC50 / HDAC6 IC50, Table 2): 293 | SI (HDAC6 selectivity index over HDAC8) (HDAC8): 1,250 | IC50 (HDAC8): 498 ± 58 nM | SI (HDAC6 selectivity index over HDAC4) (HDAC4): 20,600 | IC50 (HDAC4): 8250 nM | SGF stability (t1/2, h) [1]: >5 h | Rat liver microsomes (t1/2, min) [2]: 177 min

O=C(NO)c1ccc(CN(CCCCO)C(=O)Nc2ccccc2)cc1 [Compound 6c, reference compound]
Human plasma stability (t1/2, h) (Human plasma stability): >5 h | SI (HDAC6 selectivity index over HDAC9) (HDAC9): 59,50 | IC50 (HDAC9): 29700 nM | SI (HDAC6 selectivity index over HDAC1) (HDAC1): 296 | IC50 (HDAC1; [3]): 148 ± 9 nM | SI (HDAC6 selectivity index over HDAC8) (HDAC8): 956 | IC50 (HDAC8): 478 ± 97 nM | IC50 (HDAC4): 14000 nM | SGF stability (t1/2, h) [1]: >5 h | Rat liver microsomes (t1/2, min) [2]: 198 min

CCCCN(Cc1ccc(C(=O)NO)cc1)C(=O)Nc1ccc(CN)cc1 [Compound 6b, 4-((3-(4-(Aminomethyl)phenyl)-1-butylureido)methyl)-N-hydroxybenzamide]
Human plasma stability (t1/2, h) (Human plasma stability): >5 h | SI (HDAC6 selectivity index over HDAC9) (HDAC9): 19,200 | IC50 (HDAC9): 17300 nM | SI (HDAC6 selectivity index over HDAC1) (HDAC1): 89 | IC50 (HDAC1; [3]): 80 ± 45 nM | SI (HDAC6 selectivity index over HDAC8) (HDAC8): 682 | IC50 (HDAC8): 614 ± 58 nM | SI (HDAC6 selectivity index over HDAC4) (HDAC4): 25,700 | IC50 (HDAC4): 23100 nM | SGF stability (t1/2, h) [1]: >5 h | Rat liver microsomes (t1/2, min) [2]: 173 min

— US20230250054A1, “SELECTIVE HISTONE DEACETYLASE 6 INHIBITORS” (The Board of Trustees of the University of Illinois, priority 2020, published 2023)
